Reference: publication PMC11374673, “Discovery of isoquinoline sulfonamides as allosteric gyrase inhibitors with activity against fluoroquinolone-resistant bacteria” (Nature Chemistry, 2024)
pIC50: −log10 of the molar value. “Also recorded” adds a separate entry of the source.

How the values were obtained:
E. coli BW25113 = experiment: Bacterial cytological profiling (BCP); assay type: cell-based, Escherichia coli; set-up: DAPI total area / DAPI nucleoid area / DIC area / DIC curvature / DIC feret / DIC length / DIC orientation: unit not given here; settings: for DAPI aspect ratio / DAPI circularity / DAPI nucleoid area / DAPI nucleoids / DAPI perimeter / DAPI roundness / DAPI solidity / DAPI total area / DIC area / DIC aspect ratio / DIC circularity / DIC curvature / DIC feret / DIC length / DIC orientation / DIC perimeter / DIC roundness / DIC sinuosity / DIC solidity / DIC width / Decondensation / DIC angularity / DAPI intensity / SYTOX Green intensity: BCP; for morphological phenotype: BCP microscopy, 6.25 µM; for DIC angularity: 2 h, AMP 12.5, RIF 12.5, TET 6.25, CIP 0.0625, LEI-801 6.25, LEI-800 6.25 µM, average ± SD of 3 replicates; for DAPI intensity / SYTOX Green intensity: standardized to DMSO control
Procedure: Overnight E. coli BW25113 cultures were diluted 1:100 in fresh LB medium in a 100 ml Erlenmeyer flask and incubated at 120 r.p.m. and 37 °C. When OD600 >0.2, the cultures were diluted to OD600 of 0.1 in fresh LB medium with a final volume of 200 µl in a 2 ml Eppendorf tube. The appropriate antibiotic or control treatment was applied and the samples were incubated at 200 r.p.m. and 30 °C for 2 h. Subsequently, 4,6-diamidino-2-phenylindole (DAPI) (2 µg ml^−1), FM4-64 (2 µg ml^−1) and SYTOX Green (0.5 µM) were added to reach the desired concentration and the samples were incubated a further 10 min. The samples were then centrifuged at 3,300g for 50 s and the pellets resuspended in half the original volume. From this suspension, 5 µl was spotted onto a 2.0% agarose pad for microscopy.
Microscopy was performed on a Zeiss Axio Observer Z1/7 inverted microscope.
For the qualitative assessment of the bacterial morphology, the acquired images were first pre-processed in ImageJ (v1.53m)[47]. Thereafter the brightness and contrast were adjusted to allow the clearest visual inspection of the particular phenotype. For the quantitative BCP, DIC images were first pre-processed and then a random forest classifier was trained with Illastik (v1.3.3)[48] to generate a segmented image. These binary masks were then combined together with the original DIC image and processed with the ImageJ plugin MicrobeJ (v 5.13l)[49]. MicrobeJ generated cell outlines and performed measurements on cell shape accordingly. The recorded cell outlines produced by MicrobeJ were exported and used as a guide to characterize the DNA shape within each bacterium using a custom-made ImageJ macro (Appendix II). DAPI and SYTOX Green intensity were measured on raw images in a similar manner. Then, by hand, polygons were drawn that excluded bacteria to determine background intensity. After background correction the intensity was standardized to the DMSO control within the same biological replicate. For PCA, the BCP assay was executed for three independently biological replicates. During each experiment, images were acquired until 24 or more bacteria in total had been observed. Following feature extraction for each replicate, principal component analysis was performed using GraphPad Prism (v9.0.0) using multiple variable analysis with standardized data. Principal components (PCs) were selected based on the per cent of total explained variance (minimum 80%).

[1] = target: T1, E. coli GyrA S172A/GyrB gyrase (Escherichia coli, UniProt P0AES4, S172A); experiment: Gyrase supercoiling inhibition, GyrA S172A variant; assay type: biochemical
T1 construct: represents the first full-length E. coli gyrase structure in complex with an intact DNA molecule; 10xHis; 2xStrep (Twin-Strep); made in house
Procedure: Of this stock solution, 27 µl was aliquoted for each reaction in 1.5 ml Eppendorf tubes and supplemented with 0.6 µl of the appropriate compound dilution or corresponding solvent with a final DMSO concentration of 2%. The reactions were started with 3 µl of enzyme (1 U for WT gyrase retrieved from Inspiralis Limited or 25–30 nM gyrase variants purified in house) in dilution buffer (50 mM Tris–HCl (pH 7.5), 100 mM KCl, 2 mM DTT, 1 mM EDTA and 50% (wt/vol) glycerol) for a final volume of 30 µl. Reactions were run at 37 °C for 30 min and stopped with the addition of 30 µl STEB buffer (40% (wt/vol) sucrose, 100 mM Tris–HCl pH 8, 100 mM EDTA, 0.5 mg ml^−1 bromophenol blue) and 30 µl of a chloroform:isoamyl alcohol solution (24:1 vol/vol). After brief vortexing and centrifugation at 2,300g for 1 min, 20 µl of the aqueous phase was loaded onto 1% (wt/vol) agarose gels in TAE (Tris–acetate […]) gel. The gels were run at 85 V for 2 h followed by staining (15 min) in 1 µg ml^−1 ethidium bromide and destaining (5–10 min) in water. DNA was visualized (602/50, UV Trans, auto optimal exposure) with a ChemiDoc MP (Bio-Rad Laboratories Inc., equipped with ImageLab Touch Software v2.0.0.27) and the percentage of supercoiled DNA relative to the total amount material per lane was determined with ImageLab 6.1 software (Bio-Rad Laboratories Inc.) or ImageJ[47] software. […]

Compound	PCA clustering of 24 BCP features (E. coli BW25113)	DAPI aspect ratio (E. coli BW25113)	DAPI circularity (E. coli BW25113)	DAPI nucleoid area (E. coli BW25113)	DAPI nucleoids (E. coli BW25113)	DAPI perimeter (E. coli BW25113)	DAPI roundness (E. coli BW25113)	DAPI solidity (E. coli BW25113)	DAPI total area (E. coli BW25113)	DIC area (E. coli BW25113)	DIC aspect ratio (E. coli BW25113)	DIC circularity (E. coli BW25113)	DIC curvature (E. coli BW25113)	DIC feret (E. coli BW25113)	DIC length (E. coli BW25113)	DIC orientation (E. coli BW25113)	DIC perimeter (E. coli BW25113)	DIC roundness (E. coli BW25113)	DIC sinuosity (E. coli BW25113)	DIC solidity (E. coli BW25113)	further results
O=S(=O)(NC[C@H]1CC[C@@H](c2ccc(-c3ccc(F)nc3)cc2)N1)c1cccc2cnccc12 [LEI-801]	clustered with DMSO	2.179 ± 0.107	0.723 ± 0.016	2.366 ± 0.636	1.288 ± 0.064	6.375 ± 0.894	0.484 ± 0.024	0.916 ± 0.005	2.897 ± 0.869	3.335 ± 0.139	2.661 ± 0.151	0.699 ± 0.026	0.150 ± 0.018	3.227 ± 0.127	3.253 ± 0.128	96.714 ± 3.816	7.768 ± 0.245	0.422 ± 0.025	1.026 ± 0.005	0.962 ± 0.004	DIC width (E. coli BW25113): 1.085 ± 0.030; Decondensation (E. coli BW25113): 0.863 ± 0.226; morphological phenotype (E. coli BW25113): phenotype that is consistent with the DMSO control; DIC angularity (E. coli BW25113): 0.123 ± 0.008; DAPI intensity (E. coli BW25113): 1.156 ± 0.345; SYTOX Green intensity (E. coli BW25113): 1.000 ± 0.284; pIC50 [1]: 6.44
O=S(=O)(NC[C@@H]1CC[C@H](c2ccc(-c3cccnc3)cc2)N1)c1cccc2cnccc12 [LEI-800]	formed a cluster by itself	5.858 ± 1.821	0.365 ± 0.084	6.481 ± 2.006	1.368 ± 0.202	16.318 ± 5.417	0.220 ± 0.035	0.808 ± 0.077	8.438 ± 3.339	13.636 ± 0.225	6.808 ± 0.283	0.292 ± 0.021	0.034 ± 0.003	11.758 ± 0.377	11.910 ± 0.403	88.418 ± 18.119	25.156 ± 0.728	0.139 ± 0.012	1.021 ± 0.003	0.793 ± 0.033	DIC width (E. coli BW25113): 1.163 ± 0.063; Decondensation (E. coli BW25113): 0.616 ± 0.234; morphological phenotype (E. coli BW25113): elongation of the bacteria and condensation of the DNA; also recorded: phenotype resembling the CIP and TET morphological profile; DIC angularity (E. coli BW25113): 0.076 ± 0.010; DAPI intensity (E. coli BW25113): 0.513 ± 0.191; SYTOX Green intensity (E. coli BW25113): 2.259 ± 1.119; pIC50 [1]: 7.07
